Measured values: ChEMBL document CHEMBL1134220, “The synthesis of beta-peptides containing guanidino groups” (Bioorg Med Chem Lett, 2001)

Experiment: pKa was determined
Format: physicochemical

- pKa: 13.5
Structure (SMILES): N=C(N)N [GUANIDINE]
